Molecular target: T1, glutaminase (GAC) (Homo sapiens, UniProt O94925)
T1 sequence (O94925 55-598 isoform O94925-3 limits assumed): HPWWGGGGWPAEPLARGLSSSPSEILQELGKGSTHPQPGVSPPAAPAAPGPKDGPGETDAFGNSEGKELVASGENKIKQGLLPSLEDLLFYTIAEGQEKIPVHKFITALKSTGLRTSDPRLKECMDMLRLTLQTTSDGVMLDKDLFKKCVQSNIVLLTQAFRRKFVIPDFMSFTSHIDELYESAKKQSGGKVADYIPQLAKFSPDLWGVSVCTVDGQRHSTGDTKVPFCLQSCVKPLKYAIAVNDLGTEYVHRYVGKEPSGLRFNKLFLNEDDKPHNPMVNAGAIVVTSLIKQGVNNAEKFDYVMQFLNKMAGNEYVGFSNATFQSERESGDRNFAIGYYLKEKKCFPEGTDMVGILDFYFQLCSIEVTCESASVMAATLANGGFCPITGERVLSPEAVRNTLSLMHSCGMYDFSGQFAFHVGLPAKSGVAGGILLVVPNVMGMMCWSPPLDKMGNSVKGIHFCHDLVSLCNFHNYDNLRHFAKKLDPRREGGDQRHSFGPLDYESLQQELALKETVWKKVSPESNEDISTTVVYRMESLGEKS
Assay: Glutaminase (GAC) coupled endpoint enzymatic assay (glutamate dehydrogenase/diaphorase/resazurin, Ex544/Em590)
Type: biochemical
Details: inhibition of glutaminase, tested in an assay of Example A or Example B; class symbols A-E
Text: In certain embodiments, exemplary compounds of Formula I include the compounds described in Table 1 and in the Examples. A compound described herein may be tested for its ability to inhibit glutaminase, e.g., by an assay as described in the Examples. For simplicity, the inhibition activity of these compounds is represented as an IC50 tested in an assay of Example A or Example B in Table 1. […] “N/A” refers to compounds wherein the IC50 is unavailable.
In this example, the enzymatic activity of glutaminase is measured through a coupled endpoint assay. Glutamine and phosphate are supplied to GAC at a concentration equal to Km and AC50, respectively, and GAC concentration is adjusted to give a linear reaction for 60 minutes. The glutamate produced is converted to 2-OG by a kinetic excess of glutamate dehydrogenase. This second step is configured for 2× Km for NAD, since excess NAD is inhibitory. However, a kinetic excess of the third coupling enzyme, diaphorase, recycles NAD from NADH to keep the NAD concentration constant during the timecourse of the assay. Diaphorase, also supplied in kinetic excess, oxidizes NADH produced by GDH back to NAD with the concomitant reduction of rezasurin to the highly fluorescent resorufin. Resorufin in measured after the assay is stopped with SDS by Ex544/Em590. A reduction in the signal indicates inhibition of some component of the coupled enzyme system. Prospective hits are counterscreened against GDH/diaphorase alone to remove hits to the coupling enzyme system in a second assay.
2. Buffers 2× Buffer (300 mM NaCl, 100 mM HEPES pH 8.5, 0.1% BSA, 0.5 mM EDTA, 100 mM sodium phosphate pH 8.5) 5× Substrate Mix (1× Buffer final concentration, with 13 mM glutamine, 100 μM resazurin, 50 μg/ml diaphorase) 1.2× Enzyme Mix (1× Buffer final concentration, with 0.875 μg/ml GAC, 1.56 mM NAD, 6.25 units/ml GDH) Stop Mix (6% SDS in ddH2O) Reaction Procedure 1. Add 1 μl compound in 100% DMSO 2. Add 40 μl of Enzyme Mix and incubate for 60 minute at room temperature 3. Add 10 μl of Substrate Mix to start reaction 4. Stop reaction with 25 μl of 6% SDS and read Ex544 Em 590

Structure (SMILES)	IC50 [nM]
O=C(CCC(F)(F)F)Nc1nnc([C@H]2CCC[C@H](c3nnc(NC(=O)CCC(F)(F)F)s3)C2)s1 [Compound 47, N,N′-(5,5′-((1S,3S)-cyclohexane-1,3-diyl)bis(1,3,4-thiadiazole-5,2-diyl))bis(4,4,4-trifluorobutanamide)]	1000 to 2000
O=C(Nc1nnc([C@H]2CCC[C@H](c3nnc(NC(=O)C4CCOC4)s3)C2)s1)C1CCOC1 (stereo partly drawn) [Compound 48, N,N′-(5,5′-((1S,3S)-cyclohexane-1,3-diyl)bis(1,3,4-thiadiazole-5,2-diyl))bis(tetrahydrofuran-3-carboxamide)]	500 to 1000
O=C(Nc1nnc([C@H]2CCC[C@H](c3nnc(NC(=O)C4CCCC4)s3)C2)s1)C1CCCC1 [Compound 62, N,N′-(5,5′-((1S,3S)-cyclohexane-1,3-diyl)bis(1,3,4-thiadiazole-5,2-diyl))dicyclopentanecarboxamide]	1000 to 2000
CC(C)(CO)C(=O)Nc1nnc([C@H]2CCC[C@H](c3nnc(NC(=O)C(C)(C)CO)s3)C2)s1 [Compound 63, N,N′-(5,5′-((1S,3S)-cyclohexane-1,3-diyl)bis(1,3,4-thiadiazole-5,2-diyl))bis(3-hydroxy-2,2-dimethylpropanamide)]	500 to 1000
O=C(Cc1ccc([N+](=O)[O-])cc1)Nc1nnc([C@H]2CCC[C@H](c3nnc(NC(=O)Cc4ccc([N+](=O)[O-])cc4)s3)C2)s1 [Compound 64, N,N′-(5,5′-((1S,3S)-cyclohexane-1,3-diyl)bis(1,3,4-thiadiazole-5,2-diyl))bis(2-(4-nitrophenyl)acetamide)]	1000 to 2000
O=C(Cc1cccc([N+](=O)[O-])c1)Nc1nnc([C@H]2CCC[C@H](c3nnc(NC(=O)Cc4cccc([N+](=O)[O-])c4)s3)C2)s1 [Compound 69, N,N′-(5,5′-((1S,3S)-cyclohexane-1,3-diyl)bis(1,3,4-thiadiazole-5,2-diyl))bis(2-(3-nitrophenyl)acetamide)]	< 100
O=C(CC1CCCO1)Nc1nnc([C@H]2CCC[C@H](c3nnc(NC(=O)CC4CCCO4)s3)C2)s1 (stereo partly drawn) [Compound 77, N,N′-(5,5′-((1S,3S)-cyclohexane-1,3-diyl)bis(1,3,4-thiadiazole-5,2-diyl))bis(2-(tetrahydrofuran-2-yl)acetamide)]	1000 to 2000
O=C(CCc1ccccn1)Nc1nnc([C@H]2CCC[C@H](c3nnc(NC(=O)CCc4ccccn4)s3)C2)s1 [Compound 80, N,N′-(5,5′-((1S,3S)-cyclohexane-1,3-diyl)bis(1,3,4-thiadiazole-5,2-diyl))bis(3-(pyridin-2-yl)propanamide)]	100 to 500
Cc1ccccc1CC(=O)Nc1nnc([C@H]2CCC[C@H](c3nnc(NC(=O)Cc4ccccc4C)s3)C2)s1 [Compound 83, N,N′-(5,5′-((1S,3S)-cyclohexane-1,3-diyl)bis(1,3,4-thiadiazole-5,2-diyl))bis(2-o-tolylacetamide)]	100 to 500
O=C(CN1CCCC1=O)Nc1nnc([C@H]2CCC[C@H](c3nnc(NC(=O)CN4CCCC4=O)s3)C2)s1 [Compound 85, N,N′-(5,5′-((1S,3S)-cyclohexane-1,3-diyl)bis(1,3,4-thiadiazole-5,2-diyl))bis(2-(2-oxopyrrolidin-1-yl)acetamide)]	500 to 1000
O=C(Cc1ccc(F)cc1)Nc1nnc([C@H]2CCC[C@H](c3nnc(NC(=O)Cc4ccc(F)cc4)s3)C2)s1 [Compound 88, N,N′-(5,5′-((1S,3S)-cyclohexane-1,3-diyl)bis(1,3,4-thiadiazole-5,2-diyl))bis(2-(4-fluorophenyl)acetamide)]	100 to 500
O=C(Cc1c(F)cccc1F)Nc1nnc([C@H]2CCC[C@H](c3nnc(NC(=O)Cc4c(F)cccc4F)s3)C2)s1 [Compound 89]	100 to 500

Other lines, results leading:

IC50 [nM]	Structure (SMILES)
100 to 500	O=C(CC1CC1)Nc1nnc([C@H]2CCC[C@H](c3nnc(NC(=O)CC4CC4)s3)C2)s1 [Compound 49, N,N′-(5,5′-((1S,3S)-cyclohexane-1,3-diyl)bis(1,3,4-thiadiazole-5,2-diyl))bis(2-cyclopropylacetamide)]
100 to 500	O=C(Cc1ccc(Cl)cc1)Nc1nnc([C@H]2CCC[C@H](c3nnc(NC(=O)Cc4ccc(Cl)cc4)s3)C2)s1 [Compound 50]
100 to 500	O=C(Cc1ccccc1Cl)Nc1nnc([C@H]2CCC[C@H](c3nnc(NC(=O)Cc4ccccc4Cl)s3)C2)s1 [Compound 51, N,N′-(5,5′-((1S,3S)-cyclohexane-1,3-diyl)bis(1,3,4-thiadiazole-5,2-diyl))bis(2-(2-chlorophenyl)acetamide)]
< 100	Nc1cccc(CC(=O)Nc2nnc([C@H]3CCC[C@H](c4nnc(NC(=O)Cc5cccc(N)c5)s4)C3)s2)c1 [Compound 53, N,N′-(5,5′-((1S,3S)-cyclohexane-1,3-diyl)bis(1,3,4-thiadiazole-5,2-diyl))bis(2-(3-aminophenyl)acetamide)]
< 100	CS(=O)(=O)c1cccc(CC(=O)Nc2nnc([C@H]3CCC[C@H](c4nnc(NC(=O)Cc5cccc(S(C)(=O)=O)c5)s4)C3)s2)c1 [Compound 54, N,N′-(5,5′-((1S,3S)-cyclohexane-1,3-diyl)bis(1,3,4-thiadiazole-5,2-diyl))bis(2-(3-(methylsulfonyl)phenyl)acetamide)]
100 to 500	CC(=O)Nc1ccccc1CC(=O)Nc1nnc([C@H]2CCC[C@H](c3nnc(NC(=O)Cc4ccccc4NC(C)=O)s3)C2)s1 [Compound 55, N,N′-(5,5′-((1S,3S)-cyclohexane-1,3-diyl)bis(1,3,4-thiadiazole-5,2-diyl))bis(2-(2-acetamidophenyl)acetamide)]
100 to 500	O=C(Cc1nccs1)Nc1nnc([C@H]2CCC[C@H](c3nnc(NC(=O)Cc4nccs4)s3)C2)s1 [Compound 61]
< 100	CC(=O)Nc1cccc(CC(=O)Nc2nnc([C@H]3CCC[C@H](c4nnc(NC(=O)Cc5cccc(NC(C)=O)c5)s4)C3)s2)c1 [Compound 65, N,N′-(5,5′-((1S,3S)-cyclohexane-1,3-diyl)bis(1,3,4-thiadiazole-5,2-diyl))bis(2-(3-acetamidophenyl)acetamide)]
< 100	CS(=O)(=O)c1ccc(CC(=O)Nc2nnc([C@H]3CCC[C@H](c4nnc(NC(=O)Cc5ccc(S(C)(=O)=O)cc5)s4)C3)s2)cc1 [Compound 66, N,N′-(5,5′-((1S,3S)-cyclohexane-1,3-diyl)bis(1,3,4-thiadiazole-5,2-diyl))bis(2-(4-(methylsulfonyl)phenyl)acetamide)]
< 100	N#Cc1ccccc1CC(=O)Nc1nnc([C@H]2CCC[C@H](c3nnc(NC(=O)Cc4ccccc4C#N)s3)C2)s1 [Compound 72, N,N′-(5,5′-((1S,3S)-cyclohexane-1,3-diyl)bis(1,3,4-thiadiazole-5,2-diyl))bis(2-(2-cyanophenyl)acetamide)]
100 to 500	N#Cc1ccc(CC(=O)Nc2nnc([C@H]3CCC[C@H](c4nnc(NC(=O)Cc5ccc(C#N)cc5)s4)C3)s2)cc1 [Compound 74, N,N′-(5,5′-((1S,3S)-cyclohexane-1,3-diyl)bis(1,3,4-thiadiazole-5,2-diyl))bis(2-(4-cyanophenyl)acetamide)]
100 to 500	O=C(Cc1ccccc1OC(F)(F)F)Nc1nnc([C@H]2CCC[C@H](c3nnc(NC(=O)Cc4ccccc4OC(F)(F)F)s3)C2)s1 [Compound 75, N,N′-(5,5′-((1S,3S)-cyclohexane-1,3-diyl)bis(1,3,4-thiadiazole-5,2-diyl))bis(2-(2-(trifluoromethoxy)phenyl)acetamide)]
100 to 500	COc1cc(CC(=O)Nc2nnc([C@H]3CCC[C@H](c4nnc(NC(=O)Cc5ccc(F)c(OC)c5)s4)C3)s2)ccc1F [Compound 78, N,N′-(5,5′-((1S,3S)-cyclohexane-1,3-diyl)bis(1,3,4-thiadiazole-5,2-diyl))bis(2-(4-fluoro-3-methoxyphenyl)acetamide)]
< 100	O=C(Cc1ccccc1F)Nc1nnc([C@H]2CCC[C@H](c3nnc(NC(=O)Cc4ccccc4F)s3)C2)s1 [Compound 87, N,N′-(5,5′-((1S,3S)-cyclohexane-1,3-diyl)bis(1,3,4-thiadiazole-5,2-diyl))bis(2-(2-fluorophenyl)acetamide)]

Reference: patent US10087172B2, “Compounds and their methods of use” (AGIOS PHARMACEUTICALS, INC, priority 2012, dated 2018)
